Legend:
A2780 cells = assay: A2780 cell number, cell death and apoptosis markers (trypan blue, Western blot); format: cell-based, human
Description: […] […] Total cell number and viability have been assessed using Trypan Blue Solution (Thermo Fisher Scientific) and Countess™ 3 Automated Cell Counter (Thermo Fisher Scientific).
Lysates were loaded on 4–12% bis–tris-acrylamide gel (Life Technologies) and transferred to a nitrocellulose membrane. The membrane was blocked in 5% milk and hybridized with α-TRBP (15753-1-AP Proteintech), α-GAPDH (sc-25778, Santa Cruz Biotechnology), α-c-PARP (Bioss Antibodies, BSM-52408R), α-BCLXL (mAb #2764, Cell Signaling Technology) and α-β-actin (A3854, Sigma) antibodies. All the images were captured using the ChemiDocTM Touch Imaging System (Bio-Rad), and the densitometric analyses were performed using the associated Image Lab software (Bio-Rad).

hTopII = target: T1, hTopII (Homo sapiens, UniProt P11388); assay: Detection of hTOP2α cleavage complexes (cleavage assay); format: cell-based; details: 100 μM
T1 construct: endogenous in cells
T1 sequence (P11388 whole entry): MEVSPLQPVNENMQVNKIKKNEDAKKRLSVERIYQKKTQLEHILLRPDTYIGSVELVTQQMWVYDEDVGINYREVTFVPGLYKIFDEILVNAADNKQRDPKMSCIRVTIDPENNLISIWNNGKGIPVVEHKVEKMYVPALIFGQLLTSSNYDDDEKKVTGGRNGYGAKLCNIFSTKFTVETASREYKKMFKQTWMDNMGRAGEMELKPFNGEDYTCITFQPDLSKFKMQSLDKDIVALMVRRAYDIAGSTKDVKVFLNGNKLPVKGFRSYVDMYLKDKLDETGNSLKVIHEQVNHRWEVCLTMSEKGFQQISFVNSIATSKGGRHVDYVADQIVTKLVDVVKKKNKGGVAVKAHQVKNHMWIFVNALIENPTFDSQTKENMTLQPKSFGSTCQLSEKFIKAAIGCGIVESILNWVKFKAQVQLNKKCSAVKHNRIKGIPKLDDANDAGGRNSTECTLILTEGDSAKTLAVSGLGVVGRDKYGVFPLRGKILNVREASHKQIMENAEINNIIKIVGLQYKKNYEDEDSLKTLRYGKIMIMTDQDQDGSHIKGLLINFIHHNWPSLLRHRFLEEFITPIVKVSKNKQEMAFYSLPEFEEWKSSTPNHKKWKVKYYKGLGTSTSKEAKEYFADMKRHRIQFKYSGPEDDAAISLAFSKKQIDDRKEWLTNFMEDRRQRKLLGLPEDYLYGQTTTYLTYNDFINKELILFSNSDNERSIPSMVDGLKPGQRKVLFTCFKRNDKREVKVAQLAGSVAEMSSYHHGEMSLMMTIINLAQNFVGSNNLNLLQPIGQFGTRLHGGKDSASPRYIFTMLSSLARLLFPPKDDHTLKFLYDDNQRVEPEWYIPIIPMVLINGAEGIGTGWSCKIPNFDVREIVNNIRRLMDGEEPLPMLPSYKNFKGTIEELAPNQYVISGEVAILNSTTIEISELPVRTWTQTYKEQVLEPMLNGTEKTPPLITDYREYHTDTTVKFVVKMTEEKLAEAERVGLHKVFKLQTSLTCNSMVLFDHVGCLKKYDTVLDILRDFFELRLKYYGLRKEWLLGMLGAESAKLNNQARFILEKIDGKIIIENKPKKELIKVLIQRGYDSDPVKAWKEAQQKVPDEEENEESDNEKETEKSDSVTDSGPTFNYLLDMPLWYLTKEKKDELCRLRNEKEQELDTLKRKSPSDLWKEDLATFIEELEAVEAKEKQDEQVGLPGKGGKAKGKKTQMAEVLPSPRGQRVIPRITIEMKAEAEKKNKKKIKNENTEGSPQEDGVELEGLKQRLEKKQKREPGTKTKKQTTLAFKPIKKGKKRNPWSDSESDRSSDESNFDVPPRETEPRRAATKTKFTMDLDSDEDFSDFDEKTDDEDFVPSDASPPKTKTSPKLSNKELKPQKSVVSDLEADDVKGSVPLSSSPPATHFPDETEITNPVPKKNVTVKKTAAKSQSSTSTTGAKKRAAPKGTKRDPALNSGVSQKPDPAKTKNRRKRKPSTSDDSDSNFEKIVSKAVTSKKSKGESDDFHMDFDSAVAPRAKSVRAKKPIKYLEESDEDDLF
Experimental: (§1) After compound treatments, 1 × 10^6 human cells in 35 mm dish per sample were washed with 1× phosphate-buffered saline (PBS) and lysed with 600 μL of DNAzol (Invitrogen), followed by precipitation with 300 μL of 200 proof ethanol. The nucleic acids were collected, washed with 75% ethanol, resuspended in 200 μL of TE buffer, and then heated at 65 °C for 15 min, followed by shearing with sonication (40% output for 10 s pulse and 10 s rest for four times). The samples were centrifuged at 15 000 rpm for 5 min at 4 °C, and the supernatant were collected. 1 μL of each sample was removed for spectrophotometric measurement of absorbance at 260 nm to quantitate DNA content (NanoDrop). 2 μg of each sample was subjected to slot-blot for immunoblotting using anti-hTOP1 antibody (BD Pharmingen, 556597) and anti-hTOP2α antibody (Santa Cruz biotechnology, 365916).[51]

SKOV-3 cells = assay: SKOV-3 cell number, cell death and apoptosis markers (trypan blue, Western blot); format: cell-based, human; details: 30 μM, 72 hours
miR-21-5p biogenesis = assay: miR-21-5p luciferase reporter (psi-R21 / psi-CTRL) in HeLa cells; format: cell-based, human
Experimental: HeLa cells were transfected with 10 ng of psi-R21 or psi-CTRL using Lipofectamine™ 2000 (Thermo Fisher Scientific) and after 48 hours were treated with either enoxacin or 33 at 20 μM and 50 μM. After 6 hours Renilla luciferase (RLuc) and firefly luciferase (FLuc) activities were measured using the Dual-Luciferase® Reporter Assay System (Promega), following the manufacturer's instructions, and GloMax® Discover Microplate Reader (Promega).
The binding site for miR-21 was cloned into psiCHECK™-2 Vector (Promega), downstream the Renilla cDNA, by inverted PCR using the following oligonucleotides: 21MRE_FW […]; 21MRE_REV […]. The resulting construct was named psi-R21.

WT HCCLM3 cells = assay: Antiproliferative effect on WT HCCLM3 cells (CCK-8); format: cell-based, human; details: 30 μM, 48 hours
Experimental: (§2) HCCLM3 and SK-Hep-1 cells were seeded into 96-well plates at a density of 10 000 cells per well and allowed to adhere overnight. Subsequently, the cells were treated with the following substances: 0.1% DMSO as the negative control, various concentrations of the test compounds, and 125 μM enoxacin as the positive control. After 48 h of incubation, the original culture medium was removed, and the cells were washed twice with PBS. Then, 100 μL of DMEM culture medium containing 10% CCK-8 (Bimake, USA) was added to each well. The plates were incubated for 30 minutes at 37 °C. To determine the […], measurements were taken at a wavelength of 450 nm using a Varioskan from Thermo Fisher Scientific.

A549 (lung carcinoma) = assay: Proliferation of A549 cells (trypan blue count); format: cell-based, human; details: 30 μM, 72 hours
Experimental: (§3) A2780 and SKOV-3 cells were treated with 50 μM of 33 for 72 h before RNA and protein extraction and expression analyses. A2780 and A2780 CIS were treated with 33 (30 μM) and/or cisplatin (1 μM, Sigma-Aldrich) for 48 hours while MCF-7, A549 and HCT-116 were treated with 33 (30 μM) for 72 hours. Total cell number and viability have been assessed using Trypan Blue Solution (Thermo Fisher Scientific) and Countess™ 3 Automated Cell Counter (Thermo Fisher Scientific).

KO TRBP HCCLM3 cells = assay: Antiproliferative effect on KO TRBP HCCLM3 cells (CCK-8); format: cell-based, human; details: 30 μM, 48 hours
Experimental: as §2

HCT-116 (colon cancer) = assay: Proliferation of HCT-116 cells (trypan blue count); format: cell-based, human; details: 30 μM, 72 hours
Experimental: as §3

hTopI = target: T2, hTopI (Homo sapiens, UniProt P11387); assay: Detection of hTOP1 cleavage complexes (cleavage assay); format: cell-based; details: 100 μM
T2 construct: endogenous in cells
T2 sequence (P11387 whole entry): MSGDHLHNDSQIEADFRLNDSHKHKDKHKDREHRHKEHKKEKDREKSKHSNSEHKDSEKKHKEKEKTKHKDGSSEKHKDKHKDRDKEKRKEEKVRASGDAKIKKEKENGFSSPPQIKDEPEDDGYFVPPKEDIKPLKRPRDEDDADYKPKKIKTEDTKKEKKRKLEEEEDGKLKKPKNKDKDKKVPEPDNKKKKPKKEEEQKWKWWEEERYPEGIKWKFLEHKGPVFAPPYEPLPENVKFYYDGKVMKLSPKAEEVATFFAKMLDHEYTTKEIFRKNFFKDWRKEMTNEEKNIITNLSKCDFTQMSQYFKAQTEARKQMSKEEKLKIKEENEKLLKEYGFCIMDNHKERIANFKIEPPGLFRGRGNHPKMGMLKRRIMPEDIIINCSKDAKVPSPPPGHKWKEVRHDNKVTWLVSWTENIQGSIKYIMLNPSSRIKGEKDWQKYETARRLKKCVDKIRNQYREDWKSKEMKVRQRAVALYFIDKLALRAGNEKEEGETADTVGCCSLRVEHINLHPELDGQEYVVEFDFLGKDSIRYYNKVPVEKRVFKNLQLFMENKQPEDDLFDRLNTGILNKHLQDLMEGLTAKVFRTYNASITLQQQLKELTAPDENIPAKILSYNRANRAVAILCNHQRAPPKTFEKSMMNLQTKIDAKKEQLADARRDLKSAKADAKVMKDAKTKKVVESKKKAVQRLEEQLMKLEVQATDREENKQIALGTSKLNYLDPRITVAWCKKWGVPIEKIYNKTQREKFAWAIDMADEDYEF
Experimental: as §1

WT SK-Hep-1 cells = assay: Antiproliferative effect on WT SK-Hep-1 cells (CCK-8); format: cell-based, human; details: 48 hours
Experimental: as §2

[1] = Cytotoxicity against non-tumor Wi-38 cells (CC50, cell count); format: cell-based; details: human, Wi-38 cells (non-tumor), 50% cytotoxicity concentration, 72 hours of treatment
Experimental: SKOV-3, A2780 and A2780 CIS were cultured and maintained, as previously described,[50] at 37 °C in RPMI 1640 medium (Euroclone) supplemented with 10% fetal bovine serum (FBS; Euroclone), L-glutamine and penicillin/streptomycin (SIGMA-ALDRICH). OVCA433, HEK-293T, HeLa, HCCLM3, SK-Hep-1, MCF-7, A549 and HCT-116 cells were maintained in DMEM medium (Euroclone) containing 10% FBS (Euroclone), L-glutamine and penicillin/streptomycin (SIGMA-ALDRICH). Wi-38 cells were cultured in DMEM medium (Euroclone) supplemented with 10% FBS (Euroclone), L-glutamine and penicillin/streptomycin (SIGMA-ALDRICH), and 1% non-essential amino acids (NEAA; Euroclone). The cultures were maintained in a constant temperature incubator at 37 °C with 5% CO2. […] Once cell adhesion had been promoted, the compounds were added to the culture medium. After 72 hours of treatment, the cells were counted, and the data analyzed by linear regression. Each experiment was carried out three times in triplicate and three separate cell counts were made for each sample. […] Afterwards, the concentration range was narrowed to the relative value obtained in the first evaluation in order to obtain an accurate value.

With `O=C(O)c1cn(C2CC2)c2cc(N3CCc4ccccc4C3)c(F)cc2c1=O` [Compound 33, 1-Cyclopropyl-7-(3,4-dihydroisoquinolin-2(1H)-yl)-6-fluoro-4-oxo-1,4-dihydroquinoline-3-carboxylic acid] the “Bcl-XL protein in A2780 cells” value (A2780 cells; 30 μM, 72 hours, Western blot) was “downregulation”, the “cleaved PARP1 (c-PARP) levels in A2780 cells” value (A2780 cells; 30 μM, 72 hours, Western blot) was “increased levels of cleaved PARP1” and the “percentage of dead A2780 cells” value (A2780 cells; 30 μM, 72 hours, trypan blue) was “increased to a great extent”. For the same compound, the “total number of A2780 cells” value (A2780 cells; 30 μM, 72 hours, trypan blue) was “greatly reduced”, the “effect of 33 in combination with cisplatin on A2780 proliferation” value (A2780 cells; 33 30 μM + cisplatin 1 μM, 48 hours) was “more pronounced inhibitory effect on A2780 proliferation” and the “trapping/inhibition of hTopII (cleavage assay)” value (hTopII) was “no inhibition or trapping activity”. The “c-PARP and Bcl-XL in SKOV-3 cells” value (SKOV-3 cells; Western blot) was “No changes”, the “total number of SKOV-3 cells” value (SKOV-3 cells; trypan blue) was “greatly reduced” and the “miRNA enhancing effect: Renilla luciferase activity, psi-R21 construct” value (miR-21-5p biogenesis; 50 μM, 6 hours) was “decrease in Renilla luciferase activity”. For the same compound, the “Renilla luciferase activity, control construct psi-CTRL” value (miR-21-5p biogenesis; construct lacking the miR-21-5p binding site) was “no significant variation”, the “reduction of viability of WT HCCLM3 cells” value (WT HCCLM3 cells) was “about 50%” and the “effect on A549 cell proliferation” value (A549 (lung carcinoma)) was “significant inhibitory effect on cell proliferation”. The “antiproliferative effect on KO TRBP HCCLM3 cells” value (KO TRBP HCCLM3 cells) was “no antiproliferative effect”, the “effect on HCT-116 cell proliferation” value (HCT-116 (colon cancer)) was “significant inhibitory effect on cell proliferation” and the “trapping/inhibition of hTopI (cleavage assay)” value (hTopI) was “no inhibition or trapping activity”. The “antiproliferative effect on WT TRBP SK-Hep-1 cells” value (WT SK-Hep-1 cells; 30 μM) was “less evident”, the “viability of WT SK-Hep-1 cells” value (WT SK-Hep-1 cells; 50 μM) was “significantly reduced the viability” and the CC50 at 72 h [1] was 143 ± 42.7 µM.

— paper PMC11467779, “New anti-ovarian cancer quinolone derivatives acting by modulating microRNA processing machinery” (RSC Medicinal Chemistry, 2024)
